Data reported in patent publication US8383581B2, “Short-chain peptides as parathyroid hormone (PTH) receptor agonist” (Cadila Healthcare Limited, priority 2009, dated 2013).
Where a SMILES comes first, the peptide text is derived from it. [ ]: non-standard residue; d: D form. ξ: configuration not given here. ξBip(2'-Et-4'-OMe) = CCc1cc(OC)ccc1-c1ccc(CC(N)C(=O)O)cc1; Arg(NO2) = N=C(NCCC[C@H](N)C(=O)O)N[N+](=O)[O-]; αMePhe(2,6-F2) = C[C@](N)(Cc1c(F)cccc1F)C(=O)O; ξαMePhe(2,6-F2) = CC(N)(Cc1c(F)cccc1F)C(=O)O; ξαMe(hhPhe) = CC(N)(CCCc1ccccc1)C(=O)O; ξαMePhe(2-F) = CC(N)(Cc1ccccc1F)C(=O)O; hhPhe = N[C@@H](CCCc1ccccc1)C(=O)O; hArg = N=C(N)NCCCC[C@H](N)C(=O)O; hCit = NC(=O)NCCCC[C@H](N)C(=O)O; Cit = NC(=O)NCCC[C@H](N)C(=O)O; ξαMeF = CC(N)(Cc1ccccc1)C(=O)O; NMeV = CN[C@H](C(=O)O)C(C)C; ξαMeM = CSCCC(C)(N)C(=O)O; Nle = CCCC[C@H](N)C(=O)O; Orn = NCCC[C@H](N)C(=O)O; ξαMeP = CC1(C(=O)O)CCCN1; Ac5c = NC1(C(=O)O)CCCC1; Ac3c = NC1(C(=O)O)CC1; Aib = CC(C)(N)C(=O)O

Experiments:
Format in all cases: in vitro ADME
[1] = Stability of peptides in human plasma; conditions: human, plasma; for metabolised at 24 h, 2 μM: pH 7.8
Summary of the method: (§1)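 Peptides at 2 μM final incubated 0–24 h at 37 °C (50 mM triethanolamine-HCl, pH 7.8) in each matrix, matrix level set to degrade ~50% PTH(1-34) in 1 h; TFA-quenched, C18 HPLC at 206 nm with ESI-MS peak identification; percent degradation from peak areas at each time point.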

[2] = Stability of peptides in simulated gastric fluid (pH 1.5; HCl, NaCl and Pepsin); conditions: pH 1.5; for % degradation of peptides in 24 h when incubated with simulated gastric fluid: 2 μM; for half-life / half-life (t1/2) in simulated gastric fluid: simulated gi fluid
[3] = Stability of peptides in human liver microsomes; conditions: human, microsomes; for % degradation of peptides in 24 h when incubated with liver microsomes: 2 μM, pH 7.8
Summary of the method: as §1

[4] = Stability of peptides in simulated intestinal fluid (pH 7.5); conditions: pH 7.5; for half-life / half-life (t1/2) in simulated intestinal fluid: simulated gi fluid; for % degradation of peptides in 24 h when incubated with simulated intestinal fluid: 2 μM
Summary of the method: as §1

| half-life [1] | metabolised at 24 h, 2 μM [1] | % degradation of peptides in 24 h when incubated with simulated gastric fluid [2] | half-life [2] | half-life [3] | % degradation of peptides in 24 h when incubated with liver microsomes [3] | half-life [4] | % degradation of peptides in 24 h when incubated with simulated intestinal fluid [4] | half-life (t1/2) in simulated gastric fluid [2] | half-life (t1/2) in simulated intestinal fluid [4] | half-life (t1/2) in liver microsomes [3] | half-life (t1/2) in human plasma [1] | SMILES |
| --- | --- | --- | --- | --- | --- | --- | --- | --- | --- | --- | --- | --- |
| > 1200 min | 10% | 50% | 240 min | 120 min | 86% | > 1440 min | 00% |  |  |  |  | CCCC[C@H](NC(=O)C(C)(Cc1c(F)cccc1F)NC(=O)[C@H](CCC(N)=O)NC(=O)[C@@H](NC(=O)[C@H](CCC(=O)O)NC(=O)C1(NC(=O)[C@@H](NC(=O)C(C)(C)N)C(C)C)CC1)[C@@H](C)CC)C(=O)N[C@@H](Cc1c[nH]cn1)C(=O)N[C@@H](CCC(N)=O)C(=O)N[C@@H](CCCCNC(=N)N)C(=O)N[C@@H](C)C(=O)N[C@@H](CCCNC(=N)N[N+](=O)[O-])C(=O)NC(C)(Cc1ccccc1F)C(=O)N[C@@H](CCCc1ccccc1)C(N)=O (some centres unmarked) [Seq. ID. 720] (H-[Aib]V[Ac3c]EIQ[ξαMePhe(2,6-F2)][Nle]HQ[hArg]A[Arg(NO2)][ξαMePhe(2-F)][hhPhe]-NH2) |
| > 1440 min | 0% | 43% | 240 min | 120 min | 84% | > 1440 min | 00% |  |  |  |  | CCCC[C@H](NC(=O)C(C)(Cc1ccccc1F)NC(=O)[C@H](CCC(N)=O)NC(=O)[C@@H](NC(=O)[C@H](CCC(=O)O)NC(=O)C(C)(C)NC(=O)[C@@H](NC(=O)C(C)(C)N)C(C)C)[C@@H](C)CC)C(=O)N[C@@H](Cc1c[nH]cn1)C(=O)N[C@@H](CCC(N)=O)C(=O)NC(C)(Cc1c(F)cccc1F)C(=O)NC(C)(C)C(=O)NC(C)(C)C(=O)NC(C)(Cc1ccccc1F)C(N)=O (some centres unmarked) [Seq. ID. 490] (H-[Aib]V[Aib]EIQ[ξαMePhe(2-F)][Nle]HQ[ξαMePhe(2,6-F2)][Aib][Aib][ξαMePhe(2-F)]-NH2) |
| > 1380 min | 9% | 45% | 240 min | 120 min | 85% | > 1440 min | 00% |  |  |  |  | CCCC[C@H](NC(=O)[C@H](CC(C)C)NC(=O)[C@H](CCC(N)=O)NC(=O)[C@@H](NC(=O)[C@H](CCC(=O)O)NC(=O)C(C)(C)NC(=O)[C@@H](NC(=O)C(C)(C)N)C(C)C)[C@@H](C)CC)C(=O)N[C@@H](Cc1c[nH]cn1)C(=O)N[C@@H](CCC(N)=O)C(=O)N[C@@H](CCCN)C(=O)N[C@@H](C)C(=O)NC(C)(C)C(=O)NC(Cc1ccc(-c2ccc(OC)cc2CC)cc1)C(=O)N[C@@H](CCCc1ccccc1)C(N)=O (some centres unmarked) [Seq. ID. 750] (H-[Aib]V[Aib]EIQL[Nle]HQ[Orn]A[Aib][ξBip(2'-Et-4'-OMe)][hhPhe]-NH2) |
| 480 min | 75% | 12% |  | 60 min | 83% |  | 46% | (8) h | (6) h |  |  | CCCC[C@H](NC(=O)C(C)(Cc1c(F)cccc1F)NC(=O)[C@H](CCC(N)=O)NC(=O)[C@@H](NC(=O)[C@H](CCC(=O)O)NC(=O)C(C)(C)NC(=O)[C@@H](NC(=O)C1(N)CCCC1)C(C)C)[C@@H](C)CC)C(=O)N[C@@H](Cc1c[nH]cn1)C(=O)N[C@@H](CCC(N)=O)C(=O)N[C@@H](CCCCNC(=N)N)C(=O)NC(C)(C)C(=O)NC(C)(Cc1c(F)cccc1F)C(=O)NC(C)(Cc1ccccc1F)C(N)=O (some centres unmarked) [Seq. ID. 220] (H-[Ac5c]V[Aib]EIQ[ξαMePhe(2,6-F2)][Nle]HQ[hArg][Aib][ξαMePhe(2,6-F2)][ξαMePhe(2-F)]-NH2) |
| 480 min | 77% | 14% |  | 60 min | 81% |  | 45% | (8) h | (6) h |  |  | CCCC[C@H](NC(=O)C(C)(Cc1ccccc1F)NC(=O)[C@H](CCC(N)=O)NC(=O)[C@@H](NC(=O)[C@H](CCC(=O)O)NC(=O)C(C)(C)NC(=O)[C@@H](NC(=O)C1(N)CCCC1)C(C)C)[C@@H](C)CC)C(=O)N[C@@H](Cc1c[nH]cn1)C(=O)N[C@@H](CCC(N)=O)C(=O)N[C@@H](CCCCNC(N)=O)C(=O)N[C@@H](C)C(=O)N[C@@H](CCCNC(N)=O)C(=O)NC(C)(Cc1ccccc1F)C(N)=O (some centres unmarked) [Seq. ID. 411] (H-[Ac5c]V[Aib]EIQ[ξαMePhe(2-F)][Nle]HQ[hCit]A[Cit][ξαMePhe(2-F)]-NH2) |
| > 1440 min | 0% | 00% | > 1440 min |  | 32% | > 1440 min | 00% |  |  | (5) h |  | CC[C@H](C)[C@H](NC(=O)[C@H](CCC(=O)O)NC(=O)C(C)(C)NC(=O)[C@@H](NC(=O)C1(NC(=O)[C@@H](NC)C(C)C)CCCC1)C(C)C)C(=O)N[C@@H](CCC(N)=O)C(=O)N[C@@H](CC(C)C)C(=O)NC(C)(CCSC)C(=O)N[C@@H](Cc1c[nH]cn1)C(=O)N[C@@H](CCC(N)=O)C(=O)N[C@@H](CCCCNC(=N)N)C(=O)N[C@@H](C)C(=O)N[C@@H](CCCCNC(=N)N)C(=O)NC(C)(Cc1ccccc1F)C(=O)NC(C)(CCCc1ccccc1)C(N)=O (some centres unmarked) [Seq. ID. 940] (H-[NMeV][Ac5c]V[Aib]EIQL[ξαMeM]HQ[hArg]A[hArg][ξαMePhe(2-F)][ξαMe(hhPhe)]-NH2) |
|  | 70% | 100% | 30 min | 30 min | 100% | 30 min | 100% |  |  |  | (9) h | CCCC[C@H](NC(=O)C(C)(Cc1ccccc1F)NC(=O)[C@H](CCC(N)=O)NC(=O)[C@@H](NC(=O)[C@H](CCC(=O)O)NC(=O)C(C)(C)NC(=O)[C@@H](NC(=O)C(C)(C)N)C(C)C)[C@@H](C)CC)C(=O)N[C@@H](Cc1c[nH]cn1)C(=O)N[C@@H](CCC(N)=O)C(=O)N[C@@H](CCCNC(N)=O)C(=O)N[C@@H](C)C(=O)N[C@@H](CCCNC(N)=O)C(=O)NC(C)(Cc1ccccc1F)C(N)=O (some centres unmarked) [Seq. ID. 345] (H-[Aib]V[Aib]EIQ[ξαMePhe(2-F)][Nle]HQ[Cit]A[Cit][ξαMePhe(2-F)]-NH2) |
| > 1440 min | 0% | 55% | 240 min | 120 min | 84% | > 1440 min | 00% |  |  |  |  | CCCC[C@H](NC(=O)[C@](C)(Cc1c(F)cccc1F)NC(=O)[C@H](CCC(N)=O)NC(=O)[C@@H](NC(=O)[C@H](CCC(=O)O)NC(=O)C(C)(C)NC(=O)[C@@H](NC(=O)C(C)(C)N)C(C)C)[C@@H](C)CC)C(=O)N[C@@H](Cc1c[nH]cn1)C(=O)N[C@@H](CCC(N)=O)C(=O)N[C@@H](CCCNC(N)=O)C(=O)NC(C)(C)C(=O)N[C@@](C)(Cc1c(F)cccc1F)C(=O)N[C@@](C)(Cc1c(F)cccc1F)C(N)=O [Seq. ID. 390] (H-[Aib]V[Aib]EIQ[αMePhe(2,6-F2)][Nle]HQ[Cit][Aib][αMePhe(2,6-F2)][αMePhe(2,6-F2)]-NH2) |
| > 1440 min | 0% | 00% | > 1440 min |  | 31% | > 1440 min | 00% |  |  | (5) h |  | CCCC[C@H](NC(=O)C(C)(Cc1c(F)cccc1F)NC(=O)[C@H](CCC(N)=O)NC(=O)[C@@H](NC(=O)[C@H](CCC(=O)O)NC(=O)C1(NC(=O)[C@@H](NC(=O)C2(N)CCCC2)C(C)C)CCCC1)[C@@H](C)CC)C(=O)N[C@@H](Cc1c[nH]cn1)C(=O)N[C@@H](CCC(N)=O)C(=O)N[C@@H](CCCCNC(=N)N)C(=O)N1CCCC1(C)C(=O)N[C@@H](CCCCN)C(=O)NC(C)(Cc1ccccc1)C(N)=O (some centres unmarked) [Seq. ID. 46] (H-[Ac5c]V[Ac5c]EIQ[ξαMePhe(2,6-F2)][Nle]HQ[hArg][ξαMeP]K[ξαMeF]-NH2) |
| 480 min | 71% | 14% |  | 60 min | 78% |  | 40% | (8) h | (6) h |  |  | CCCC[C@H](NC(=O)C(C)(Cc1c(F)cccc1F)NC(=O)[C@H](CCC(N)=O)NC(=O)[C@@H](NC(=O)[C@H](CCC(=O)O)NC(=O)C(C)(C)NC(=O)[C@@H](NC(=O)C1(N)CCCC1)C(C)C)[C@@H](C)CC)C(=O)N[C@@H](Cc1c[nH]cn1)C(=O)N[C@@H](CCC(N)=O)C(=O)N[C@@H](CCCCNC(=N)N)C(=O)NC(C)(C)C(=O)NC(C)(Cc1c(F)cccc1F)C(=O)NC(C)(Cc1c(F)cccc1F)C(N)=O (some centres unmarked) [Seq. ID. 240] (H-[Ac5c]V[Aib]EIQ[ξαMePhe(2,6-F2)][Nle]HQ[hArg][Aib][ξαMePhe(2,6-F2)][ξαMePhe(2,6-F2)]-NH2) |
